In ChEMBL document CHEMBL3734751, “Discovery of novel, potent and low-toxicity angiotensin II receptor type 1 (AT1) blockers: Design, synthesis and biological evaluation of 6-substituted aminocarbonyl benzimidazoles with a chiral center” (Eur J Med Chem, 2015):
Where a chain is given by its changes, count along the chain named. Active and inactive are the calls of the source. The calls are words filed in the database; no cut-off is given here.

Key:
[1] = biological target: T1, Type-1 angiotensin II receptor (Homo sapiens, UniProt P30556); assay: Displacement of [125I]Sar1Ile8-Ang2 from human AT1 receptor expressed in CHO-K1 cell membranes after 180 mins
T1 sequence (P30556 whole entry): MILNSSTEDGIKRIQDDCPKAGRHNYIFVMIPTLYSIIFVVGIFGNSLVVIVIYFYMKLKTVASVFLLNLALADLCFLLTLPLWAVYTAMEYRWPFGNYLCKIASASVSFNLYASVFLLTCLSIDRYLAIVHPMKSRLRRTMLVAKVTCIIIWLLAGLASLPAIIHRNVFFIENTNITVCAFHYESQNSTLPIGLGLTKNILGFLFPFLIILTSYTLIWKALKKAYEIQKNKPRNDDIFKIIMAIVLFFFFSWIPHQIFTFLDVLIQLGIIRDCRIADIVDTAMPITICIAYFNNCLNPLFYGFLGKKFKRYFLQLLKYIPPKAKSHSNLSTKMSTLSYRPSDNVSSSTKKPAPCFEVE

Rattus norvegicus [2] = assay: Antihypertensive activity in spontaneously hypertensive rat assessed as decrease in mean blood pressure at 10 mg/kg, po within 24 hrs by tail-cuff plethysmography; format: functional, organism-based
[3] = biological target: T2, Type-1 angiotensin II receptor (Oryctolagus cuniculus, UniProt P34976); assay: Antagonist activity against AT1 receptor in Japanese White rabbit aortic strips assessed as reduction in angiotension-2-induced contractile response after 60 mins by Schild's plot analysis; settings: read-out: pA2 (converted)
T2 sequence (P34976 whole entry): T1 sequence (P30556 whole entry) with I2M, V49A, I254V, I270V, R272H, R311K, T349S, A353V

Rattus norvegicus [4] = assay: Antihypertensive activity in spontaneously hypertensive rat assessed as mean blood pressure at 30 mg/kg, po by tail-cuff plethysmography; format: functional, organism-based
[5] = Toxicity in Kunming mouse at 1.5 g/kg, po assessed as mortality after 2 weeks; format: organism-based; settings: in vivo, 1500 mg/kg
[6] = Toxicity in Kunming mouse at 2 g/kg, po assessed as mortality after 2 weeks; format: organism-based; settings: in vivo, 2000 mg/kg
[7] = Toxicity in Kunming mouse at 1.3 g/kg, po assessed as mortality after 2 weeks; format: organism-based; settings: in vivo, 1300 mg/kg
[8] = Toxicity in Kunming mouse at 1.8 g/kg, po assessed as mortality after 2 weeks; format: organism-based; settings: in vivo, 1800 mg/kg
[9] = Toxicity in orally dosed Kunming mouse assessed as mortality after 2 weeks; format: organism-based; settings: in vivo, po

Row | IC50 [1] [nM] | Kb [3] [nM] | Compound | further results
1 | 2.7 | – | CCCSc1nc2c(C)cc(C(=O)NC[C@@H](C)c3ccccc3)cc2n1Cc1ccc(-c2ccccc2-c2nnn[nH]2)cc1 | Activity (Rattus norvegicus [2]): inactive
2 | 366 | – | CCCc1nc2c(C)cc(C(=S)NC[C@H](C)c3ccccc3)cc2n1Cc1ccc(-c2ccccc2-c2nnn[nH]2)cc1 | –
3 | 738 | – | CCCc1nc2c(C)cc(C(=S)NC[C@@H](C)c3ccccc3)cc2n1Cc1ccc(-c2ccccc2C(=O)O)cc1 | –
4 | 1120 | – | CCCc1nc2c(C)cc(C(=S)NC[C@H](C)c3ccccc3)cc2n1Cc1ccc(-c2ccccc2C(=O)O)cc1 | –
5 | 40.4 | 1.86 | CCCc1nc2c(C)cc(C(=O)NC[C@@H](C)c3ccccc3)cc2n1Cc1ccc(-c2ccccc2C(=O)O)cc1 | –
6 | 3.5 | – | CCOc1nc2c(C)cc(C(=O)NC[C@H](C)c3ccccc3)cc2n1Cc1ccc(-c2ccccc2-c2nnn[nH]2)cc1 | –
7 | 622 | – | CCSc1nc2c(C)cc(C(=O)NC[C@@H](C)c3ccccc3)cc2n1Cc1ccc(-c2ccccc2-c2nnn[nH]2)cc1 | –
8 | 106 | – | CCCc1nc2c(C)cc(C(=O)NC[C@@H](O)c3ccccc3)cc2n1Cc1ccc(-c2ccccc2-c2nnn[nH]2)cc1 | –
9 | 23 | 5.62 | CCCc1nc2c(C)cc(C(=O)NC[C@H](C)c3ccccc3)cc2n1Cc1ccc(-c2ccccc2C(=O)O)cc1 | –
10 | 503 | – | CCSc1nc2c(C)cc(C(=O)NC[C@H](C)c3ccccc3)cc2n1Cc1ccc(-c2ccccc2-c2nnn[nH]2)cc1 | –
11 | 343 | – | CCCc1nc2c(C)cc(C(=S)NC[C@@H](C)c3ccccc3)cc2n1Cc1ccc(-c2ccccc2-c2nnn[nH]2)cc1 | –
12 | 699 | – | CSc1nc2c(C)cc(C(=O)NC[C@@H](C)c3ccccc3)cc2n1Cc1ccc(-c2ccccc2-c2nnn[nH]2)cc1 | –
13 | 6.3 | – | CCOc1nc2c(C)cc(C(=O)NC[C@@H](C)c3ccccc3)cc2n1Cc1ccc(-c2ccccc2-c2nnn[nH]2)cc1 | –
14 | 671 | – | CSc1nc2c(C)cc(C(=O)NC[C@H](C)c3ccccc3)cc2n1Cc1ccc(-c2ccccc2-c2nnn[nH]2)cc1 | –
15 | 161 | – | CCCc1nc2c(C)cc(C(=O)NC[C@H](O)c3ccccc3)cc2n1Cc1ccc(-c2ccccc2-c2nnn[nH]2)cc1 | –
16 | 1.4 | – | CCCSc1nc2c(C)cc(C(=O)NC[C@H](C)c3ccccc3)cc2n1Cc1ccc(-c2ccccc2-c2nnn[nH]2)cc1 | Activity (Rattus norvegicus [2]): inactive

Continued, compound first:

Row | Compound | IC50 [1] [nM] | Kb [3] [nM] | further results
17 | CCCc1nc2c(C)cc(C(=O)N[C@@H](C)c3ccccc3)cc2n1Cc1ccc(-c2ccccc2C(=O)O)cc1 | 19.5 | – | Activity (Rattus norvegicus [2]): inactive
18 | CCCc1nc2c(C)cc(C(=O)NC[C@@H](C)c3ccccc3)cc2n1Cc1ccc(-c2ccccc2-c2nnn[nH]2)cc1 | 5 | 26.3 | –
19 | CCCc1nc2c(C)cc(C(=O)NC[C@H](O)c3ccccc3)cc2n1Cc1ccc(-c2ccccc2C(=O)O)cc1 | 93.9 | – | –
20 | CCCc1nc2c(C)cc(C(=O)N[C@H](CO)c3ccccc3)cc2n1Cc1ccc(-c2ccccc2-c2nnn[nH]2)cc1 | 129 | 7.76 | –
21 | CCCc1nc2c(C)cc(C(=O)N[C@@H](COC)c3ccccc3)cc2n1Cc1ccc(-c2ccccc2C(=O)O)cc1 | 70 | 3.16 | –
22 | CCSc1nc2c(C)cc(C(=O)NC[C@@H](C)c3ccccc3)cc2n1Cc1ccc(-c2ccccc2C(=O)O)cc1 | 788 | – | –
23 | CCCc1nc2c(C)cc(C(=O)N[C@@H](CO)c3ccccc3)cc2n1Cc1ccc(-c2ccccc2C(=O)O)cc1 | 496 | 7.41 | –
24 | CCCCc1nc(Cl)c(CO)n1Cc1ccc(-c2ccccc2-c2nnn[nH]2)cc1 | – | – | Activity (Rattus norvegicus [4]): Active
25 | CCCc1nc2c(C)cc(C(=O)N[C@@H](CO)c3ccccc3)cc2n1Cc1ccc(-c2ccccc2-c2nnn[nH]2)cc1 | 293 | 15.8 | –
26 | CCOc1nc2c(C)cc(C(=O)NC[C@H](C)c3ccccc3)cc2n1Cc1ccc(-c2ccccc2C(=O)O)cc1 | 7.3 | – | –
27 | CCCCc1nc(Cl)c(CO)n1Cc1ccc(-c2ccccc2-c2nn[nH]n2)cc1 [LOSARTAN] | – | – | mortality at 336 h [5]: 30%; mortality at 336 h [6]: 90%; mortality at 336 h [7]: 10%; mortality at 336 h [8]: 80%; LD50 at 336 h [9]: 1570 mg/kg
28 | CCCc1nc2c(C)cc(C(=O)N[C@H](CO)c3ccccc3)cc2n1Cc1ccc(-c2ccccc2C(=O)O)cc1 | 214 | 3.98 | –
29 | CCCc1nc2c(C)cc(C(=O)N[C@H](COC)c3ccccc3)cc2n1Cc1ccc(-c2ccccc2C(=O)O)cc1 | 57.9 | 3.63 | –
30 | CCSc1nc2c(C)cc(C(=O)NC[C@H](C)c3ccccc3)cc2n1Cc1ccc(-c2ccccc2C(=O)O)cc1 | 487 | – | –
31 | CCCc1nc2c(C)cc(C(=O)NC[C@@H](O)c3ccccc3)cc2n1Cc1ccc(-c2ccccc2C(=O)O)cc1 | 104 | – | –
32 | CCCc1nc2c(C)cc(C(=O)N[C@@H](COC)c3ccccc3)cc2n1Cc1ccc(-c2ccccc2-c2nnn[nH]2)cc1 | 38.9 | 6.92 | –
33 | CSc1nc2c(C)cc(C(=O)NC[C@@H](C)c3ccccc3)cc2n1Cc1ccc(-c2ccccc2C(=O)O)cc1 | 1370 | – | –
34 | CCCc1nc2c(C)cc(C(=O)N[C@H](C)c3ccccc3)cc2n1Cc1ccc(-c2ccccc2C(=O)O)cc1 | 90.5 | – | –
35 | CSc1nc2c(C)cc(C(=O)NC[C@H](C)c3ccccc3)cc2n1Cc1ccc(-c2ccccc2C(=O)O)cc1 | 609 | – | –
36 | CCCc1nc2c(C)cc(C(=O)NCC(C)c3ccccc3)cc2n1Cc1ccc(-c2ccccc2-c2nnn[nH]2)cc1 (racemic) | 16.7 | 3.09 | –
37 | CCCSc1nc2c(C)cc(C(=O)NC[C@@H](C)c3ccccc3)cc2n1Cc1ccc(-c2ccccc2C(=O)O)cc1 | 87.2 | – | –
38 | CCCc1nc2c(C)cc(C(=O)NCCc3ccccc3)cc2n1Cc1ccc(-c2ccccc2C(=O)O)cc1 | 23.1 | 8.13 | –
39 | CCOc1nc2c(C)cc(C(=O)NC[C@@H](C)c3ccccc3)cc2n1Cc1ccc(-c2ccccc2C(=O)O)cc1 | 57.4 | – | –
40 | CCCSc1nc2c(C)cc(C(=O)NC[C@H](C)c3ccccc3)cc2n1Cc1ccc(-c2ccccc2C(=O)O)cc1 | 61.2 | – | –
41 | CCCc1nc2c(C)cc(C(=O)N[C@H](COC)c3ccccc3)cc2n1Cc1ccc(-c2ccccc2-c2nnn[nH]2)cc1 | 157 | 3.16 | –
